{"source": "ChEMBL document CHEMBL3865818", "about": "“4,5-Diaryl-3H-1,2-dithiole-3-thiones and related compounds as combretastatin A-4/oltipraz hybrids: Synthesis, molecular modelling and evaluation as antiproliferative agents and inhibitors of tubulin” (Eur J Med Chem, 2016)", "key": {"[1]": {"test": "Cell cycle arrest in human KB cells assessed as accumulation at SubG1-phase at 0.05 uM measured after 24 hrs by propidium iodide staining-based flow cytometry (reference value: 0.76%)", "assay_type": "functional"}, "[2]": {"test": "Cell cycle arrest in human KB cells assessed as accumulation at SubG1-phase at 0.1 uM measured after 24 hrs by propidium iodide staining-based flow cytometry (reference value: 0.76%)", "assay_type": "functional"}, "[3]": {"test": "Cell cycle arrest in human KB cells assessed as accumulation at SubG1-phase at 0.05 uM measured after 12 hrs by propidium iodide staining-based flow cytometry (reference value: 1.23%)", "assay_type": "functional"}, "[4]": {"test": "Cell cycle arrest in human KB cells assessed as accumulation at SubG1-phase at 0.05 uM measured after 36 hrs by propidium iodide staining-based flow cytometry (reference value: 0.63%)", "assay_type": "functional"}, "[5]": {"test": "Cell cycle arrest in human KB cells assessed as accumulation at G2/M-phase measured after 12 hrs by propidium iodide staining-based flow cytometry (reference value: 30.19%)", "assay_type": "functional"}, "[6]": {"test": "Cell cycle arrest in human KB cells assessed as accumulation at G0/G1-phase measured after 48 hrs by propidium iodide staining-based flow cytometry (reference value: 58.26%)", "assay_type": "functional"}, "[7]": {"test": "Antiproliferative activity against human KB cells measured after 72 hrs by MTT assay", "assay_type": "functional, cell-based"}, "[8]": {"test": "Cell cycle arrest in human KB cells assessed as accumulation at S-phase at 0.05 uM measured after 24 hrs by propidium iodide staining-based flow cytometry (reference value: 16.96%)", "assay_type": "functional"}, "[9]": {"test": "Cell cycle arrest in human KB cells assessed as accumulation at G0/G1-phase at 0.2 uM measured after 12 hrs by propidium iodide staining-based flow cytometry (reference value: 48.26%)", "assay_type": "functional"}, "[10]": {"test": "Cell cycle arrest in human KB cells assessed as accumulation at SubG1-phase at 0.2 uM measured after 24 hrs by propidium iodide staining-based flow cytometry (reference value: 0.76%)", "assay_type": "functional"}, "[11]": {"test": "Cell cycle arrest in human KB cells assessed as accumulation at G2/M-phase at 0.05 uM measured after 60 hrs by propidium iodide staining-based flow cytometry (reference value: 18.9%)", "assay_type": "functional"}, "[12]": {"test": "Cell cycle arrest in human KB cells assessed as accumulation at S-phase at 0.1 uM measured after 60 hrs by propidium iodide staining-based flow cytometry (reference value: 12.66%)", "assay_type": "functional"}, "[13]": {"test": "Cell cycle arrest in human KB cells assessed as accumulation at G0/G1-phase at 0.05 uM measured after 60 hrs by propidium iodide staining-based flow cytometry (reference value: 63.85%)", "assay_type": "functional"}}}
{"smiles": "COc1ccc(-c2ssc(=O)c2-c2cc(OC)c(OC)c(OC)c2)cc1N", "values": [{"measurement": "Activity", "setting": "[1]", "result": 6.04, "unit": "%"}, {"measurement": "Activity", "setting": "[2]", "result": 16, "unit": "%"}, {"measurement": "Activity", "setting": "[3]", "result": 7.09, "unit": "%"}, {"measurement": "Activity", "setting": "[4]", "result": 10.1, "unit": "%"}, {"measurement": "Activity", "setting": "[5]", "result": 64.4, "unit": "%"}, {"measurement": "Activity", "setting": "[6]", "result": 11.3, "unit": "%"}, {"measurement": "IC50", "setting": "[7]", "result": 0.06, "unit": "µM"}, {"measurement": "Activity", "setting": "[8]", "result": 15.5, "unit": "%"}, {"measurement": "Activity", "setting": "[9]", "result": 1.63, "unit": "%"}, {"measurement": "Activity", "setting": "[10]", "result": 11.1, "unit": "%"}, {"measurement": "Activity", "setting": "[11]", "result": 14, "unit": "%"}, {"measurement": "Activity", "setting": "[12]", "result": 9.61, "unit": "%"}, {"measurement": "Activity", "setting": "[13]", "result": 37.8, "unit": "%"}]}
